# According to patent US9126999B2, “Tetrahydropyrazolopyrimidine compounds” (EISAI R&D MANAGEMENT CO., LTD., priority 2012, dated 2015):
# Molecular target: T1, Human TLR9 (Homo sapiens, UniProt Q9NR96)
# T1 sequence (Q9NR96 26-1032): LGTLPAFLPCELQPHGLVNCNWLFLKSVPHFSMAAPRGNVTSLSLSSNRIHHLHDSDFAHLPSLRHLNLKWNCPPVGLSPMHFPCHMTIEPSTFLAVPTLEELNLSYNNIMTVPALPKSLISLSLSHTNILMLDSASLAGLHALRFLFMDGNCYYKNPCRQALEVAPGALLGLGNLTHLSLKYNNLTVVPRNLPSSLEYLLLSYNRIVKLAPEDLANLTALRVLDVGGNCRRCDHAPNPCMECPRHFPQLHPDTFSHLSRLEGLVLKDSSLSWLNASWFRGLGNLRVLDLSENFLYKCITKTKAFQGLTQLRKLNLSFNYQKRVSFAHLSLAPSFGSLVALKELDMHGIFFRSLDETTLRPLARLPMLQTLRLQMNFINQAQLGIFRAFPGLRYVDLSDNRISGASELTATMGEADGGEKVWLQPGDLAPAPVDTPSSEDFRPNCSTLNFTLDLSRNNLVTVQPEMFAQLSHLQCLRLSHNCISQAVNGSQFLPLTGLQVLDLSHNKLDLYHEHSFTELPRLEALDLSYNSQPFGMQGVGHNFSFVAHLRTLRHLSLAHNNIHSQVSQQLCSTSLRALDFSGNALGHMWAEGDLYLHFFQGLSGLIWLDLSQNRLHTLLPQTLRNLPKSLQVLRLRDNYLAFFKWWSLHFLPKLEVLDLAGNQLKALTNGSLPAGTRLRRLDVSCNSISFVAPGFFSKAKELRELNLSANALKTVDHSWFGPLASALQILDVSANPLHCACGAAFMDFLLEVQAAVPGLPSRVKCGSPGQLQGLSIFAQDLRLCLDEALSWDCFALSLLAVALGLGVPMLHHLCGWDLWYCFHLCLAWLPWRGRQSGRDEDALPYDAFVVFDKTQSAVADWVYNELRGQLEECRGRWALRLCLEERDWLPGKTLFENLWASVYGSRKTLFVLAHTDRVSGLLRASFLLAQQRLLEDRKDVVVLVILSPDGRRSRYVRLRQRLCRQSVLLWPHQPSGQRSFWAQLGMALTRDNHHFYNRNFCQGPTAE
# Assay: Human PBMC cell-based assay, CpG-ODN stimulus, IL-6 ELISA
# Set-up: endogenous in cells; host or cells: primary human PBMC from healthy donor blood
# Details: Hu PBMC; ligand CpG-ODN; analyte IL-6
# Procedure: Human peripheral blood mononuclear cells (PBMC) were isolated from freshly-drawn heparinized (10 USP units/ml, Hospira, Lakeforest, Ill.) healthy donor whole blood by density gradient (Histopaque® 1077, Sigma, Inc., St. Louis, Mo.). Briefly, 25 ml blood was diluted with 15 ml PBS (without Ca^2+, Mg^2+) in a 50 ml conical tube, and 12 ml Histopaque was underlaid using a spinal needle. Tubes were centrifuged for 45 minutes at 1200 rpm (350×g), and PBMC were collected from the buffy coat. Cells were then washed twice in PBS, and red blood cells were lysed by suspension in 5 ml ammonium chloride solution (1× Red Blood Cell Lysis Buffer, eBioscience) for 5 minutes at room temperature. […]
# Antagonist compounds solubilized and serial diluted in 100% DMSO were added in triplicate to cells to yield a final concentration of 0.1% DMSO (v/v). […] Cell culture supernatants were collected, and levels of various human cytokines were assessed as indicated by standard ELISA procedure according to the manufacturer's recommended protocol (BD Biosciences, Inc., San Diego, Calif.).
compound,measurement,value
"COc1ccc([C@@H]2C[C@H](C(F)(F)F)n3nc(-c4ccc(C(=O)N5CCNCC5)cc4)cc3N2)cc1OC [ER-892887, (4-((5S,7R)-5-(3,4-dimethoxyphenyl)-7-(trifluoromethyl)-4,5,6,7-tetrahydropyrazolo[1,5-a]pyrimidin-2-yl)phenyl)(piperazin-1-yl)methanone]",IC50,> 10 µM
